Literature values in patent publication US8952000B2, “Cholesterol absorption inhibitor and omega 3 fatty acids for the reduction of cholesterol and for the prevention or reduction of cardiovascular, cardiac and vascular events” (Pivotal Therapeutics Inc., priority 2011, dated 2015).

solubility in ethanol, methanol, and acetone (ethanol, methanol, acetone): freely to very soluble | solubility in water (water): practically insoluble
SMILES: O=C1[C@H](CC[C@H](O)c2ccc(F)cc2)[C@@H](c2ccc(O)cc2)N1c1ccc(F)cc1 [Ezetimibe, (3R,4S)-1-(p-fluorophenyl)-3-[(3S)-3-(p-fluorophenyl)-3-hydroxypropyl]-4-(p-hydroxyphenyl)-2-azetidinone]
